Data: patent US20250195530A1, “POLQ INHIBITORS” (ASTRAZENECA AB, priority 2022, published 2025)

tested on: DLD-1 BRCA2−/− cells; assay: Homologous recombination synthetic lethal inhibition of proliferation, DLD-1 BRCA2-/- (Cell Titre Glo 3D); type: cell-based; settings: DLD-1 BRCA2 −/−, mean
Method in brief: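 Luminescent Cell Titre Glo 3D readout, taken on day 12 for homologous-recombination-deficient DLD-1 BRCA2−/− and day 7 for the wild-type control, after compound refresh on day 6. Compounds spanned 10 μM to 0.51 nM in three-fold steps; IC50 defined as 50% reduction of average maximum signal.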

Compared with `CC1(Oc2ncnc3c2nc(-c2ccc(O[C@H]4CC[C@@H](C(=O)O)CC4)cc2Cl)n3Cc2ccccc2C#N)CC1` [Example U16, (1s,4s)-4-(3-chloro-4-(9-(2-cyanobenzyl)-6-(1-methylcyclopropoxy)-9H-purin-8-yl)phenoxy)cyclohexane-1-carboxylic acid], `CC1(Oc2ncnc3c2nc(-c2ccc(O[C@H]4CC[C@H](C(=O)O)CC4)cc2Cl)n3Cc2ccccc2C#N)CC1` [Example U19, (1r,4r)-4-(3-chloro-4-(9-(2-cyanobenzyl)-6-(1-methylcyclopropoxy)-9H-purin-8-yl)phenoxy)cyclohexane-1-carboxylic acid] is higher in “POLQ PD Prolif Lumin BRCA2 −/− mean pIC50” value: 6.4 for the first, 6.6 for the second.

First: CC1(Oc2ncnc3c2nc(-c2ccc(OC[C@H]4C[C@H](C(=O)O)C4)cc2Cl)n3Cc2ccccc2C#N)CC1 [Example U27, (1r,3r)-3-((3-chloro-4-(9-(2-cyanobenzyl)-6-(1-methylcyclopropoxy)-9H-purin-8-yl)phenoxy)methyl)cyclobutane-1-carboxylic acid]
Second: CC1(Oc2ncnc3c2nc(-c2ccc(O[C@H]4CC[C@@H](C(=O)O)CC4)cc2Cl)n3Cc2cc(Cl)ccc2F)CC1 [Example U44, (1s,4s)-4-(3-chloro-4-(9-(5-chloro-2-fluorobenzyl)-6-(1-methylcyclopropoxy)-9H-purin-8-yl)phenoxy)cyclohexane-1-carboxylic acid]
The “POLQ PD Prolif Lumin BRCA2 −/− mean pIC50” value of the first is lower: 6.7 for the first, 7.2 for the second.

same assay, conditions: Homo sapiens, DLD-1, DLD-1 BRCA2 −/−, mean; read-out: POLQ PD Prolif Lumin BRCA2 −/− mean pIC50 (converted)

First: CC1(Oc2ncnc3c2nc(-c2ccc(OCC4(CC(=O)O)CC4)cc2Cl)n3Cc2ccccc2C#N)CC1 [Example U15, 2-(1-((3-chloro-4-(9-(2-cyanobenzyl)-6-(1-methylcyclopropoxy)-9H-purin-8-yl)phenoxy)methyl)cyclopropyl)acetic acid]
Second: CC1(Oc2ncnc3c2nc(-c2ccc(OCCC(C)(C)C(=O)O)cc2Cl)n3Cc2ccccc2C#N)CC1 [Example U17, 4-(3-chloro-4-(9-(2-cyanobenzyl)-6-(1-methylcyclopropoxy)-9H-purin-8-yl)phenoxy)-2,2-dimethylbutanoic acid]
The IC50 of the first is 3.2-fold higher: 0.794 µM for the first, 0.251 µM for the second.

Going from `CC1(Oc2ncnc3c2nc(-c2ccc(CCCCC(=O)O)cc2Cl)n3Cc2ccccc2C#N)CC1` [Example U20, 5-(3-chloro-4-(9-(2-cyanobenzyl)-6-(1-methylcyclopropoxy)-9H-purin-8-yl)phenyl)pentanoic acid] to `CC1(Oc2ncnc3c2nc(-c2ccc(OCCCC(C)(C)C(=O)O)cc2Cl)n3Cc2ccccc2C#N)CC1` [Example U21, 5-(3-chloro-4-(9-(2-cyanobenzyl)-6-(1-methylcyclopropoxy)-9H-purin-8-yl)phenoxy)-2,2-dimethylpentanoic acid], the IC50 falls from 0.251 µM to 0.158 µM (1.6-fold).

For `CC1(Oc2ncnc3c2nc(-c2cccc(OCCC(=O)O)c2Cl)n3Cc2cc(Cl)ccc2F)CC1` [Example U32, 3-(2-chloro-3-(9-(5-chloro-2-fluorobenzyl)-6-(1-methylcyclopropoxy)-9H-purin-8-yl)phenoxy)propanoic acid], the IC50 was 0.0398 µM.

same assay, conditions: Homo sapiens, DLD-1, first proliferation column; DLD-1 BRCA2-/-; read-out: POLQ PD Prolif Lumin (converted)

Going from `CC(C)(C)Oc1cccc2c1nc(-c1ccc(OCCN3CCNCC3)cc1Cl)n2Cc1cccc(Cl)c1` [Example T608, 4-(tert-butoxy)-2-(2-chloro-4-(2-(piperazin-1-yl)ethoxy)phenyl)-1-(3-chlorobenzyl)-1H-benzo[d]imidazole] to `CC1(Oc2cccc3c2nc(-c2ccc(OCCN4CCNCC4)cc2Cl)n3Cc2cccc(Cl)c2)CCC1` [Example T611, 2-(2-chloro-4-(2-(piperazin-1-yl)ethoxy)phenyl)-1-(3-chlorobenzyl)-4-(1-methylcyclobutoxy)-1H-benzo[d]imidazole], the IC50 falls from 0.501 µM to 0.316 µM (1.6-fold).

Work on `Cc1ccnc(Cn2c(-c3ccc(OCCN4CCN(C)CC4)cc3Cl)nc3c(OC(C)(C)C)nccc32)c1` [Example T610, 4-(tert-butoxy)-2-(2-chloro-4-(2-(4-methylpiperazin-1-yl)ethoxy)phenyl)-1-((4-methylpyridin-2-yl)methyl)-1H-imidazo[4,5-c]pyridine] yielded an IC50 of over 7.94 µM.
